Where “and” joins values, the source holds several entries; their conditions need not be identical. Identical values can stand only once.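 96-well plates; 48 h exposure; 5 concentrations. Endpoints by linear interpolation between flanking doses. Not reached: highest tested concentration assigned. At the GI50, growth is halved. TGI denotes the concentration required for complete inhibition of growth.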
Key:
Assay in all cases: NCI-60 cell line screen, 48 h
SK-OV-3 ovarian = tested on: SK-OV-3 ovarian
HL-60(TB) leukemia = tested on: HL-60(TB) leukemia
OVCAR-3 ovarian = tested on: OVCAR-3 ovarian
CCRF-CEM leukemia = tested on: CCRF-CEM leukemia
SK-MEL-28 melanoma = tested on: SK-MEL-28 melanoma
NCI-H460 lung = tested on: NCI-H460 lung
COLO 205 colon = tested on: COLO 205 colon
IGROV1 ovarian = tested on: IGROV1 ovarian

SMILES | GI50 (SK-OV-3 ovarian) | TGI (SK-OV-3 ovarian) | GI50 (HL-60(TB) leukemia) | TGI (HL-60(TB) leukemia) | GI50 (OVCAR-3 ovarian) | TGI (OVCAR-3 ovarian) | GI50 (CCRF-CEM leukemia) | TGI (CCRF-CEM leukemia) | GI50 (SK-MEL-28 melanoma) | TGI (SK-MEL-28 melanoma) | GI50 (NCI-H460 lung) | TGI (NCI-H460 lung) | GI50 (COLO 205 colon) | TGI (COLO 205 colon) | TGI (IGROV1 ovarian) | GI50 (IGROV1 ovarian)
C[N+]1=C(/C=C/c2ccc(O)c3ncccc23)C(C)(C)c2ccccc21 | 2.76 µM | 12 µM | 2.73 µM | 8.04 µM | 2.1 µM | 5.46 µM | 3.1 µM | 26 µM | 4.35 µM | 16.4 µM | 1.77 µM | 3.8 µM | 2.3 µM | 6.11 µM | – | –
O=c1cc(-c2ccccc2)oc2cc(OC/C(=N/O)c3ccccc3)ccc12 | 12.1 µM | 32.5 µM | > 50 µM | > 50 µM | 12.8 µM | > 50 µM | – | – | 12.3 µM | 32.2 µM | 14.2 µM | > 50 µM | > 50 µM | > 50 µM | – | –
COc1ccc(NC(=O)CC(=O)N/N=C/c2ccc(N(CCC#N)S(C)(=O)=O)cc2)cc1 | – | > 100 µM | – | – | – | > 100 µM | – | > 100 µM | – | > 100 µM | – | > 100 µM | – | > 100 µM | > 100 µM | –
N#CSC1CCCCNC1=O (stereo unspecified) | – | 21.9 µM | – | 87.4 µM | – | 29.5 µM | – | 34.8 µM | – | 28.1 µM | – | 28.7 µM | – | 30.2 µM | – | –
COc1ccc2c(c1)C(=O)c1c-2n(CCCn2ccnc2)c(=O)c2cc([N+](=O)[O-])ccc12 | < 0.01 µM | 1.88 µM | < 0.01 µM | 16.1 µM | 0.0254 µM | 4.41 µM | – | – | – | > 100 µM | < 0.01 µM | 0.241 µM | 0.0548 µM | > 42.8 µM | 25.2 µM | < 0.01 µM
O=C(CCc1cc(-c2ccccc2)nc(=S)[nH]1)N(Cc1ccccc1)Cc1ccccc1 | – | > 100 µM | – | > 100 µM | – | > 100 µM | – | > 100 µM | – | – | – | > 100 µM | – | > 100 µM | > 100 µM | –
Nc1cccc(S(=O)(=O)NCC(=O)O)c1 | – | > 100 µM | – | – | – | > 100 µM | – | > 100 µM | – | > 100 µM | – | > 100 µM | – | > 100 µM | > 100 µM | –
CC[C@@]1(c2ccccc2)C2=C(CC(C)(C)CC2=O)Nc2[nH]ncc21 | > 100 µM | > 100 µM | – | – | > 100 µM | > 100 µM | 31.8 µM | > 100 µM | > 100 µM | > 100 µM | > 100 µM | > 100 µM | > 100 µM | > 100 µM | > 100 µM | > 100 µM
Cc1cc(Cl)cc2c1NC(=O)C2(O)CC(=O)c1ccco1 (stereo unspecified) | – | > 100 µM | – | – | – | > 100 µM | – | 57.3 µM | – | > 100 µM | – | > 100 µM | – | > 100 µM | > 100 µM | –
CCCn1c(=S)sc2c1nc(C)n1c(Nc3ccccc3)nnc21 | 16.8 µM | 89.1 µM | 3.46 µM | > 100 µM | – | – | 4.32 µM | > 100 µM | 5.71 µM | 38.6 µM | 3.5 µM | 13.8 µM | 17 µM | 47.3 µM | > 100 µM | 25.8 µM
O=C(CC1(O)C(=O)Nc2c(Cl)ccc(Cl)c21)c1ccc(F)cc1 (stereo unspecified) | – | > 100 µM | – | 58.2 µM | – | > 100 µM | – | > 100 µM | – | > 100 µM | – | > 100 µM | – | > 100 µM | – | –
O=C(O)CCSC(=O)Nc1ccc([N+](=O)[O-])cc1 | – | – | – | > 100 µM | – | > 100 µM | – | > 100 µM | – | > 100 µM | – | > 100 µM | – | > 100 µM | > 100 µM | –
CCCCCCCCn1ccc2cc(NC(=O)Cn3cc(CN4CCCC4)nn3)ccc21 | 1.81 µM | 3.51 µM | 1.83 µM | 3.8 µM | 2.13 µM | 4.9 µM | 2.9 µM | > 100 µM | – | – | 1.82 µM | 3.51 µM | 1.99 µM | 3.82 µM | 3.59 µM | 1.74 µM
COc1cc(C(=O)CBr)c(OC)cc1C | – | > 100 µM | – | > 100 µM | – | – | – | > 100 µM | – | > 100 µM | – | – | – | > 100 µM | > 100 µM | –
O=C(N/C(=C\c1cccc([N+](=O)[O-])c1)c1nc2ccc([N+](=O)[O-])cc2[nH]1)c1ccccc1 | – | > 100 µM | – | – | – | > 100 µM | – | 87.6 µM | – | > 100 µM | – | – | – | > 100 µM | 74.4 µM | –
O=C(O)/C=C(\c1nc2ccc([N+](=O)[O-])cc2[nH]1)c1cc(Cl)ccc1O | 2.44 µM | 11.8 µM | 2.42 µM | 30.4 µM | – | – | 2.51 µM | 12.7 µM | 2.66 µM | 14.4 µM | 3.03 µM | 17.9 µM | 2.87 µM | 11.2 µM | 39.5 µM | 2.92 µM
CC(=O)O[C@H]1C(=O)[C@@]2(C)C(C(OC(=O)c3ccccc3)[C@]3(O)CC(OC(=O)[C@H](OC(=O)CCC(=O)O)C(NC(=O)c4ccccc4)c4ccccc4)C(C)=C1C3(C)C)C1(OC(C)=O)COC1C[C@@H]2O (stereo partly specified) | < 0.0159 µM and 0.0343 µM | > 100 µM | – | < 0.0136 µM | – | 1.76 µM and 0.459 µM | – | 0.658 µM and 1.57 µM | – | – | – | > 100 µM | – | < 0.0142 µM and 0.04 µM | > 67.7 µM and 50 µM | –
O=C(Nc1ccc(-c2nc(N3CCOCC3)c3cccn3n2)cc1)Nc1cccnc1 | 0.0987 µM | 0.596 µM | 0.359 µM | > 100 µM | 0.152 µM | 1.06 µM | 0.0547 µM | > 100 µM | – | – | 0.142 µM | > 100 µM | – | – | 0.464 µM | 0.0767 µM
CCC[CH2][Sn]1([CH2]CCC)[O]C(=O)CN=Cc2c(ccc3ccccc23)[O]1 | 1.11 µM | 2.31 µM | – | – | 0.706 µM | 1.95 µM | – | – | 0.363 µM | 1.13 µM | 1.36 µM | 2.75 µM | 0.401 µM | 1.47 µM | > 100 µM | 2.48 µM
NC(=O)NS(=O)(=O)c1ccc(N2N=C(C(F)(F)F)CC2c2cc(C(F)(F)F)cc(C(F)(F)F)c2)cc1 (stereo unspecified) | 7.82 µM | 21.3 µM | 3.89 µM | > 100 µM | 1.83 µM | 4.12 µM | 2.94 µM | 19.9 µM | 4.39 µM | 16.7 µM | 3.47 µM | 11.7 µM | 2.96 µM | 12 µM | – | –
O=S(=O)(NC1=NCCN1C(=S)SN1CCn2c1nsc2=S)c1cccc(Cl)c1 | – | – | 13.1 µM | 80.5 µM | 12.9 µM | 28.5 µM | 3.81 µM | > 100 µM | 21.4 µM | 39.7 µM | 22.5 µM | 72.9 µM | 7.48 µM | 20.7 µM | 36.8 µM | 12.4 µM

From PubChem BioAssay (NCI)
